Patent publication US6630484B1 (priority 1996, dated 2003)
“Also recorded” adds a separate entry of the source.

Assays:
Golgi α-mannosidase II = target: T1, Golgi α-mannosidase II (Homo sapiens, UniProt Q16706); assay: Inhibition of the glycoprotein processing Golgi α-mannosidase II; type: biochemical
T1 sequence (Q16706 1-1144): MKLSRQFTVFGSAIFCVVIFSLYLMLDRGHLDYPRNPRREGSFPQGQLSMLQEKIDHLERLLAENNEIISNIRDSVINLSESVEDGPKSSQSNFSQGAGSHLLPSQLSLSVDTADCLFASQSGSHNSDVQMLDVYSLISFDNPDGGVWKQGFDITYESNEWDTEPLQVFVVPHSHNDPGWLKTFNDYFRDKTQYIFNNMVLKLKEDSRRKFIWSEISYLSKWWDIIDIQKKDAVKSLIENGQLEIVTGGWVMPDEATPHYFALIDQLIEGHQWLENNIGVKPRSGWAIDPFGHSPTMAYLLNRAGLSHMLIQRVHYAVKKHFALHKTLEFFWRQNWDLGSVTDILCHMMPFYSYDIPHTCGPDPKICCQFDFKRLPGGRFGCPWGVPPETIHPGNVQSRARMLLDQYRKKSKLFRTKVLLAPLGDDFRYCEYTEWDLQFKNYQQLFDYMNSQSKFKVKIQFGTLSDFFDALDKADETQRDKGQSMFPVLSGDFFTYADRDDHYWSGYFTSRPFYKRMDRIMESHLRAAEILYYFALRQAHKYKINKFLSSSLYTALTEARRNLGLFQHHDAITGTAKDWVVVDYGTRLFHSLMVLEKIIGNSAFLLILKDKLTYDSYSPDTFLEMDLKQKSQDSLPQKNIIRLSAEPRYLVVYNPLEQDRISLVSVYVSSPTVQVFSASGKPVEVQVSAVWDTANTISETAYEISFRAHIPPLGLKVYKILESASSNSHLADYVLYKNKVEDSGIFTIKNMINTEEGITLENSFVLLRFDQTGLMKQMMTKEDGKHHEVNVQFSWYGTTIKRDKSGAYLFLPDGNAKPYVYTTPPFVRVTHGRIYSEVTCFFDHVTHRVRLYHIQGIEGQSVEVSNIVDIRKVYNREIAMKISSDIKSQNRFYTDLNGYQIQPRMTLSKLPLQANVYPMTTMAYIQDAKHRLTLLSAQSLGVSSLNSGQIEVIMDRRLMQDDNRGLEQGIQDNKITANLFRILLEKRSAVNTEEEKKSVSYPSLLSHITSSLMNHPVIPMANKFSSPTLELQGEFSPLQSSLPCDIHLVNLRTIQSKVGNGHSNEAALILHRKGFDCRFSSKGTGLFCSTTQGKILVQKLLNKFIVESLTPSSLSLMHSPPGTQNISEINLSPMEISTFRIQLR

[1] = 50 to 550 μg/kg/day continuous i.v. infusion over 5 days, cited from earlier work
[2] = animals; cited from earlier work
[3] = target: T2, α-mannosidase from jack bean (Canavalia ensiformis, UniProt C0HJB3); assay: Screen for inhibition of α-mannosidase from jack bean; type: biochemical; details: for IC50: read-out: Concentration Required for 50% Inhibitions, α-Mannosidase (jack bean)
T2 sequence (C0HJB3 1-981): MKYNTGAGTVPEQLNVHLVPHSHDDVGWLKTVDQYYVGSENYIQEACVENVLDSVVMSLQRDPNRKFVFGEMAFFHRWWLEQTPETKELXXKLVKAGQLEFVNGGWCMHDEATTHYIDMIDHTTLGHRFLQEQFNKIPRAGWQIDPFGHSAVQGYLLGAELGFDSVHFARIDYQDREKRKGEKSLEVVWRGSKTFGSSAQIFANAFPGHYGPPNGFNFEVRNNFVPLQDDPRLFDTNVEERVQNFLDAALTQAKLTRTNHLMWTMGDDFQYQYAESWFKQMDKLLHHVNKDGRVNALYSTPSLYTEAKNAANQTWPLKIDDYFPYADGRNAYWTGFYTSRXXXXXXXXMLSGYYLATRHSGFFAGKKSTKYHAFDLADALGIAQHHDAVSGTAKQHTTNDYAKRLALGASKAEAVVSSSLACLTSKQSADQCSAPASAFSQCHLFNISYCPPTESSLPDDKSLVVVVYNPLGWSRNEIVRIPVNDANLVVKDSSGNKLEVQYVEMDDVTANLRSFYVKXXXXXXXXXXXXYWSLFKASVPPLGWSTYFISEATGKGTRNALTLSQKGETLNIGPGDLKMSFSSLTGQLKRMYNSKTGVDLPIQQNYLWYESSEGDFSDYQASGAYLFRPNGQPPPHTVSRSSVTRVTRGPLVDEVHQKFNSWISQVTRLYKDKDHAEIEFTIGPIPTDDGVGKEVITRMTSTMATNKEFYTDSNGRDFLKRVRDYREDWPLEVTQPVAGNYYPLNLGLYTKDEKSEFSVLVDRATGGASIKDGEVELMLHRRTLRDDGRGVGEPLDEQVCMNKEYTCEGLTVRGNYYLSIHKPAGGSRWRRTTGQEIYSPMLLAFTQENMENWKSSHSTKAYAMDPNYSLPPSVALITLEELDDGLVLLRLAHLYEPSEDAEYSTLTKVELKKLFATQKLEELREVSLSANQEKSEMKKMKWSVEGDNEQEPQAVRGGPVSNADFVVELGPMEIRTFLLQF

lysosomal mannosidase = target: T3, lysosomal mannosidase (Homo sapiens, UniProt O00754); assay: Selectivity for inhibition of α-mannosidase II vs. lysosomal mannosidase; type: biochemical; details: for ratio M/L (smaller is better): ratio of activities of α-Mannosidase II/lysosomal mannosidase
T3 sequence (O00754 50-1011): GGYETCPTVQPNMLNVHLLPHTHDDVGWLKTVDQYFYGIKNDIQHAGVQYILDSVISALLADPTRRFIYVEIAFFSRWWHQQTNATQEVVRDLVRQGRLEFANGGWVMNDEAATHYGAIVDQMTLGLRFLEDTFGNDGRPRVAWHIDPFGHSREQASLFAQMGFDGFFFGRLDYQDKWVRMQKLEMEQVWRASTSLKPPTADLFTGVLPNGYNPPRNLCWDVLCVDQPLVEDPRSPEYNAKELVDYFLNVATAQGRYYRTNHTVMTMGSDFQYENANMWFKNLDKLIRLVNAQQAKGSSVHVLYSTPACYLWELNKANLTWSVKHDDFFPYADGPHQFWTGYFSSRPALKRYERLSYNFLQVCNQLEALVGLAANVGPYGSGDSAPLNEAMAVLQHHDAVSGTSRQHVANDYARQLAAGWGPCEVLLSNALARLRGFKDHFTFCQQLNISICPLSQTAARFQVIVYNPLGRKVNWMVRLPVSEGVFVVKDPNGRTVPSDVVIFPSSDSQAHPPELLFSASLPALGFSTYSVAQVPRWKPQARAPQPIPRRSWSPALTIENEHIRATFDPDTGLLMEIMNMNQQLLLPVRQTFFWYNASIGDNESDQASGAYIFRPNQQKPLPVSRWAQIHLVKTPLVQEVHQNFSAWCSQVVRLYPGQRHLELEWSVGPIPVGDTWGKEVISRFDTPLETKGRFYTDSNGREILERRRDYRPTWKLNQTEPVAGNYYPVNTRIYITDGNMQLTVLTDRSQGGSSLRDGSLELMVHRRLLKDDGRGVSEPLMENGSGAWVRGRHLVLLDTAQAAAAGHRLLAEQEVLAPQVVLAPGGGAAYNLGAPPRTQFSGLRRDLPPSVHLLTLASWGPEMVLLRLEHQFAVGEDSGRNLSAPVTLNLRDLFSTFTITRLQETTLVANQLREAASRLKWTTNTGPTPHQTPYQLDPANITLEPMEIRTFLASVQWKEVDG

SMILES | α-mannosidase (jack bean) inhibitory activity (in words) [3] | IC50 [3] | selectivity for inhibition of α-mannosidase II over lysosomal mannosidase (in words) (lysosomal mannosidase) | ratio M/L (smaller is better) (lysosomal mannosidase) | also measured
O[C@H]1[C@H]2[C@H](O)CCCN2C[C@H]1O [Compound 1, swainsonine] | – | – | – | – | inhibition of α-mannosidase II (in words) (Golgi α-mannosidase II): potent inhibitor; toxicity observed in patients ([1]; repeated at 28 day intervals): Moderate toxicity; Serum half-life ([1]; patients with advanced malignancies): 0.5 days; preclinical toxicity [2]: low preclinical toxicity
CC[C@H]1C[C@@H](O)[C@@H]2[C@H](O)[C@H](O)CN2C1 [Compound 24, (1S,2R,6S,8R,8aR)-6-Ethyl-1,2,8-trihydroxyindolizidine] | highest degree of inhibitory activity | 30 µM | increased selectivity | 0.2 | –
O[C@H]1[C@H]2[C@H](O)C[C@H](CCOCc3ccccc3)CN2C[C@H]1O [Compound 25, (1S,2R,6S,8R,8aR)-6-[2-(Benzyloxy)ethyl]-1,2,8-trihydroxyindolizidine] | slight decrease in inhibitory activity | 70 µM | increased selectivity | 0.33 | –
CC[C@@H]1C[C@@H](O)[C@@H]2[C@H](O)[C@H](O)CN2C1 [Compound 26, (1S,2R,6R,8R,8aR)-6-Ethyl-1,2,8-trihydroxyindolizidine] | highest degree of inhibitory activity; also recorded: significant decrease in activity | 230 µM | increased selectivity | 0.47 | –
O[C@H]1[C@H]2[C@H](O)C[C@@H](CCOCc3ccccc3)CN2C[C@H]1O [Compound 27, (1S,2R,6R,8R,8aR)-6-[2-(Benzyloxy)ethyl]-1,2,8-trihydroxyindolizidine] | significant decrease in activity | 275 µM | – | – | –
CCCC[C@@H]1CCN2C[C@@H](O)[C@@H](O)[C@H]2[C@@H]1O [Compound 52, (1S,2R,7R,8R,8aR)-7-Butyl-1,2,8-trihydroxyindolizidine] | – | > 1000 µM | increased selectivity | 0.02 | selectivity for inhibition of α-mannosidase II over lysosomal mannosidase (lysosomal mannosidase): 50 fold; melting point: 156 °C
O[C@@H]1[C@H](CCOCc2ccccc2)CCN2C[C@@H](O)[C@@H](O)[C@@H]12 [Compound 53, (1S,2R,7S,8R,8aR)-7-[2-(Benzyloxy)ethyl]-1,2,8-trihydroxyindolizidine] | weak inhibitor | 890 µM | – | – | –
CCCC[C@@H]1CCN2CC3OC(C)(C)O[C@H]3[C@@H]2[C@H]1O (stereo partly drawn) [Compound 54, (1S,2R,7R,8S,8aS)-7-Butyl-8-hydroxy-1,2-O-isopropylidenedioxyindolizidine] | – | > 1000 µM | – | – | –
CC1(C)OC2CN3CC[C@@H](CCOCc4ccccc4)[C@H](O)[C@H]3[C@@H]2O1 (stereo partly drawn) [Compound 55, (1S,2R,7R,8S,8aS)-7-[2-(Benzyloxy)ethyl]-8-hydroyx-1,2-O-isopropylidenedioxyindolizidine] | – | > 1000 µM | – | – | –
CCCC[C@@H]1CCN2C[C@@H](O)[C@@H](O)[C@@H]2[C@H]1O [Compound 56, (1S,2R,7R,8S,8aS)-7-Butyl-1,2,8-trihydroxyindolizidine] | – | > 1000 µM | – | – | –
O[C@H]1[C@H](CCOCc2ccccc2)CCN2C[C@@H](O)[C@@H](O)[C@H]12 [Compound 57, (1S,2R,7S,8S,8aS)-7-[2-(Benzyloxy)ethyl]-1,2,8-trihydroxyindolizidine] | – | > 1000 µM | – | – | –
CCCC[C@H]1CCN2C[C@@H](O)[C@@H](O)[C@@H]2[C@H]1O [Compound 77, (1S,2R,7S,8S,8aS)-7-Butyl-1,2,8-trihydroxyindolizidine] | – | > 1000 µM | – | – | –
O[C@H]1[C@@H](CCOCc2ccccc2)CCN2C[C@@H](O)[C@@H](O)[C@H]12 [Compound 78, (1S,2R,7R,8S,8aS)-7-[2-(Benzyloxy)ethyl]-1,2,8-trihydroxyindolizidine] | – | > 1000 µM | – | – | –
